Measured values published in article PMC8065850 (Microorganisms, 2021).
pIC50: −log10 of the molar value. Entries after “also recorded” stand apart in the source; their conditions may differ.

What was measured:
SARS-CoV-2 3CLpro = SARS-CoV-2 3CLpro (Severe acute respiratory syndrome coronavirus 2, UniProt P0DTD1); assay: biochemical; format: biochemical
SARS-CoV 3CLpro = SARS-CoV 3CLpro (Severe acute respiratory syndrome coronavirus, UniProt P0C6X7); assay: biochemical; format: biochemical
[1] = test system: SARS-CoV-2 in infected Vero cells; conditions: cited from earlier work

| SMILES | inhibitory effect in library screening against SARS-CoV-2 3CLpro (in words) (SARS-CoV-2 3CLpro) | inhibitory effect in library screening against SARS-CoV 3CLpro (in words) (SARS-CoV 3CLpro) | pIC50 (SARS-CoV 3CLpro) | other results |
| --- | --- | --- | --- | --- |
| Cc1cccc(C)c1OCC(=O)N[C@@H](Cc1ccccc1)[C@@H](O)C[C@H](Cc1ccccc1)NC(=O)[C@H](C(C)C)N1CCCNC1=O [Lopinavir] | did not block the proteolytic activity | – | – | – |
| Nc1nc(O)c2ncn(COC(CO)CO)c2n1 [No 1-3, Ganciclovir] | little | little | – | – |
| CC(C)OC(=O)[C@H](C)N[P@](=O)(OC[C@H]1O[C@@H](n2ccc(=O)[nH]c2=O)[C@](C)(F)[C@@H]1O)Oc1ccccc1 [No 2-3, Sofosbuvir] | little | little | – | – |
| C=C1[C@H](CO)[C@@H](O)C[C@@H]1n1cnc2c(=O)[nH]c(N)nc21 [No 4-3, Entecavir] | little | little | – | – |
| Nc1ccn([C@@H]2CS[C@H](CO)O2)c(=O)n1 [No 4-4, Lamivudine] | little | little | – | – |
| CCN(CC)CCCC(C)Nc1ccnc2cc(Cl)ccc12 (centres unmarked) [No 6-5, Chloroquine] | little | little | – | – |
| CCN(CCO)CCCC(C)Nc1ccnc2cc(Cl)ccc12 (centres unmarked) [No 6-6, Hydroxychloroquine] | little | little | – | – |
| Nc1nc(NC2CC2)c2ncn([C@H]3C=C[C@@H](CO)C3)c2n1 [abacavir, Abacavir] | – | – | 4.61 | pIC50 (SARS-CoV-2 3CLpro): 4.90 |
| Nc1ccn(C[C@@H](CO)OCP(=O)(O)O)c(=O)n1 [cidofovir, Cidofovir] | – | – | < 4.33 | pIC50 (SARS-CoV-2 3CLpro): < 4.44 |
| CC(C)(C)NC(=O)[C@@H]1CN(Cc2cccnc2)CCN1C[C@@H](O)C[C@@H](Cc1ccccc1)C(=O)N[C@H]1c2ccccc2C[C@H]1O [indinavir, Indinavir] | – | – | 4.50 | – |
| CCC(CC)COC(=O)[C@H](C)N[P@](=O)(OC[C@H]1O[C@@](C#N)(c2ccc3c(N)ncnn23)[C@H](O)[C@@H]1O)Oc1ccccc1 [remdesivir, Remdesivir] | minor inhibitory activity | – | – | – |
| CC(C)c1nc(CN(C)C(=O)N[C@H](C(=O)N[C@@H](Cc2ccccc2)C[C@H](O)[C@H](Cc2ccccc2)NC(=O)OCc2cncs2)C(C)C)cs1 [ritonavir, Ritonavir] | did not block the proteolytic activity; also recorded: did not show clear inhibitory activity | – | – | – |
| CCCc1nn(C)c2c(=O)[nH]c(-c3cc(S(=O)(=O)N4CCN(C)CC4)ccc3OCC)nc12 [sildenafil, Sildenafil] | – | – | 4.90 | pIC50 (SARS-CoV-2 3CLpro): 5.08 |
| CN1CC(=O)N2[C@H](c3ccc4c(c3)OCO4)c3[nH]c4ccccc4c3C[C@@H]2C1=O [tadalafil, Tadalafil] | did not display meaningful inhibitory activity | did not display meaningful inhibitory activity | – | – |
| C[C@H](Cn1cnc2c(N)ncnc21)OCP(=O)(O)O [tenofovir, Tenofovir] | – | – | 4.85 | killing of SARS-CoV-2 in infected Vero cells [1]: kill SARS-CoV-2 |
